Data on one compound can be found in publication PMC7414031, “Correlation between hemolytic activity, cytotoxicity and systemic in vivo toxicity of synthetic antimicrobial peptides” (Scientific Reports, 2020).

In one data set the test system is Staphylococcus aureus. The arrangement: method as in PMID 30842436. Conditions: cited from earlier work.
The nature of data set [1]: in vitro. The data set is classed as cell-based, rat (Sprague–Dawley). Conditions: Sprague-Dawley, rat. A digest of the protocol: (§1)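 Washed heparinized erythrocytes (~5 × 10^8 RBC/mL in PBS) incubated 1 h at 37 °C with peptides in serial 1:1 dilutions (150 to 1.2 µM final). Haemoglobin release read at 405 nm in supernatant; % haemolysis relative to 1% Triton X-100 (100%) and PBS diluent (0%).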

The next data set has as its system rat erythrocytes. The data set can be described thus: in vitro. The data set is classed as cell-based, rat (Sprague–Dawley). The method, boiled down: as §1
The conditions of data set [2]: at in vivo dosing concentrations.
Method: (§3) To further address the actual correlation of the in vitro observations to an in vivo situation, three compounds were selected for animal studies. […] Peptides where chosen to include compounds with ranging antibacterial activity, residue composition, hydrophobicity and in vitro mammalian toxicity, deliberately excluding compounds too hydrophobic and too toxic (50% > lysis at 150 µM in vitro against rats and human). […] All the compounds were tested at the same concentrations 0, 0.01 and 1.0 mg/kg rat.
(§4) The compounds were formulated in sterile PBS (tablets, Medicago, Sweden), sonicated and sterile filtered through a Millex-GV filter (0.22 µm pore size, Ø 13 mm, Merck) before use. […] Doses were 0 (vehicle control), 0.01 and 1.0 mg/kg rat).
A short description of data set [3]: in vitro. Conditions: human. The data set is classed as cell-based, human. The method, boiled down: as §1
In the next data set the test system is human erythrocytes. Description: in vitro. The data set is classed as cell-based. The method, boiled down: as §1
The nature of data set [4]: Dose-ranging intravenous toxicity study in rats. The data set is classed as in vivo, rat (WistarHan). Conditions: rat. The protocol:
All animals were injected with a single dose of 0.5 mL (2 mL/kg body weight) and it was slowly administered over 2 min and 10 s. Shorter cationic tripeptides[4] and synthetic AMPs[72] have previously been evaluated employing the intravenous route. It was an interesting observation that the animals survived the systemic tail vein injection seemingly unaffected. This observation is in contrast to related synAMPs investigated as intravenous antibiotics which induced acute toxicity and paralysis at higher concentrations.

A short description of data set [5]: in vitro. The data set is classed as cell-based, bovine. Conditions: bovine. The method, boiled down: as §1
Another data set has as its system bovine erythrocytes. Description: in vitro. The data set is classed as cell-based. Conditions: bovine erythrocytes. A digest of the protocol: as §1
A further data set can be described thus: physchem. Conditions: PBS.
Data set [6] is described as follows: in vitro. The data set is classed as cell-based, dog. Conditions: dog. The method, boiled down: as §1
Another data set concerns canine erythrocytes. Description: in vitro. The data set is classed as cell-based, dog. The method, boiled down: as §1
In data set [7] the test system is Staphylococcus pseudintermedius. Conditions: cited from earlier work.
The next data set has as its system HaCaT cells. The data set is classed as cell-based, human. Conditions: 1 h. On the procedure:
(§2) An immortalised human keratinocyte (HaCaT) cell line (Gift from David Gram Naym at Bispebjerg Hospital, Denmark), a human liver cancer cell line (HepG2; ATCC HB-8065) and a human epithelial cervical cancer cell line (HeLa; ATCC CCL-2) were cultured to ∼90% confluence after 21–25 h of growth under standard conditions (5% CO2 at 37 °C). Cells were cultured in Dulbecco’s Modified Eagle’s Medium supplemented with 10% (v/v) fetal bovine serum (FBS). All culture media were supplemented with penicillin (100 IU/mL) and streptomycin (100 μg/mL). All cell media and supplements were obtained from Sigma-Aldrich (St. Louis, MO, United States). The 96-well plates were supplied by Corning Costar (Sigma-Aldrich, Brøndby, Denmark). Cell viability assessment was performed on cell monolayers grown to ∼90% confluence in 96-well plates by using the MTS/PMS assay as previously described. Briefly, the adhered cells were washed with PBS solution (37 °C) (ThermoFisher Scientific, Roskilde) and exposed for 1 h at 37 °C to 100 μL of peptides dissolved in the medium also used for culturing of the cell line (at concentrations in the range 0–1,000 μg/mL). The cells were subsequently washed twice with 37 °C PBS and then 100 μL of an MTS/PMS solution in media, consisting of 240 μg/mL MTS (Promega, Madison, WI, United States) and 2.4 mg/mL PMS (Promega, Madison, WI, United States), was added to the cells, which then were incubated for 1 h at 37 °C protected from light. A plate reader (SpectraMax i3X; Molecular devices, San Jose, CA) was used to measure the absorbance at 492 nm. The relative viability was calculated by using 0.2% (w/v) sodium dodecyl sulfate (SDS) as the positive control, while cells exposed to medium without test compound were used as the negative control.

In the next data set the test system is HepG2 cells. The data set is classed as cell-based, human. Conditions: 1 h. On the procedure: as §2
In a further data set the test system is HeLa cells. The data set is classed as cell-based, human. Conditions: 1 h. On the procedure:
as §2

Another data set relates to Pseudomonas aeruginosa. Also on record: method as in PMID 30842436. Conditions: cited from earlier work.

pIC50: −log10 of the molar value. Converted amounts (≈) assume the structure as drawn. Peptide text beside a SMILES is read from it. Bounds are passed on as bounds.

Method for physchem: as §3, §4

A word on the pIC50: it is −log10 of the IC50, conventionally taken in molar units. As a reminder, the solubility is how much of the substance goes into solution per volume. On to `CC(C)C[C@@H](NC(=O)[C@H](CCCCN)NC(=O)[C@H](CCCCN)NC(=O)[C@@H](N)CCCCN)C(=O)N[C@H](Cc1cccc2ccccc12)C(=O)N[C@H](Cc1ccccc1)C(=O)N[C@H](Cc1cccc2ccccc12)C(N)=O` [Compound 11, Lys-Lys-Lys-Leu-(1-Nal)Ala-Phe-(1-Nal)Ala] (HELM PEPTIDE1{K.K.K.[dL].[O=C([C@@H](Cc1cccc2ccccc12)N[*:1])[*:2]].[dF].[O=C([C@@H](Cc1cccc2ccccc12)N[*:1])[*:2]].[am]}$$$$V2.0), for which the “MIC against Staphylococcus aureus” value in the data set with Staphylococcus aureus is reported as 8 µg/mL (≈ 7.57 µM). Moreover, the hemolysis at 1 h, 150 µM in “in vitro [1]” was 11.3%; in “in vitro [3]”, 33.3%; in “in vitro [5]” it was 17.4%; in “in vitro [6]” it was 40.7%. Besides, the IC10 haemolysis stood at 128.2 µM with rat erythrocytes (rat erythrocytes), 32.8 µM in the data set with human erythrocytes (human erythrocytes), 89.2 µM in the data set with bovine erythrocytes and 30.4 µM in the data set with canine erythrocytes (canine erythrocytes). For the same compound, the negative-log IC50 (pIC50) was less than 3.82 in the data set on rat erythrocytes (red cells of rat); less than 3.82 in the data set on human erythrocytes (red cells of human); less than 3.82 with canine erythrocytes (red cells of canine); 3.29 in the data set with HaCaT cells; 3.63 in the data set with HepG2 cells; 3.63 in the data set with HeLa cells. For the same compound, in [2], the “Solubility in PBS (in words)” value was “required mild heating and sonication at the highest concentration”. Moreover, in data set [4] (1 mg/mL in PBS injected, assuming 17 mL blood volume for a 250 g rat), the “Maximal serum concentration (calculated from dose)” value is 15 µM. Further, the “Whole blood haemolysis in vivo” value in data set [4] (in vivo, iv) was “not observed in vivo”. Besides, the concentration in solution in the data set “physchem” (solubility) was 1000 µg/mL (≈ 947 µM). Besides, the “S.p. MIC” value in data set [7] (Staphylococcus pseudintermedius, Table S5, in µM) is given as 1.9 µM. For the same compound, the “MIC against Staphylococcus pseudintermedius” value in data set [7] was 2 µg/mL (≈ 1.89 µM). In addition, the “MIC against Pseudomonas aeruginosa” value in the data set on Pseudomonas aeruginosa is reported as 8 µg/mL (≈ 7.57 µM).
